Assay [1] deals with infantilen weiblichen Kaninchen. Nature of the assay: Clauberg test for progestational (gestagenic) activity after oral administration. Format: in vivo. Conditions: for McPhail: infantile female rabbits; for Schwellendosis (McPhail 1,5) für die gestagene Wirkung: minimum amount for a positive effect (McPhail 1,5). The source says: Die gestagene Wirkung wurde im üblichen Clauberg-Test nach oraler Applikation an infantilen weiblichen Kaninchen ermittelt.
Die zur Erzielung eines positiven Effekts benötigte Mindestmenge wird durch den McPhail-Wert 1,5 ausgedrückt.
In der folgenden Tabelle werden die Ergebnisse des Tests zusmmengestellt.

In the next assay the target is Androgen-Rezeptor (Homo sapiens, UniProt P10275). Nature of the assay: Androgen receptor test (competition factor). Format: binding. Conditions: assessment in words, based on the competition factor.
Androgen-Rezeptor, sequence (P10275 whole entry): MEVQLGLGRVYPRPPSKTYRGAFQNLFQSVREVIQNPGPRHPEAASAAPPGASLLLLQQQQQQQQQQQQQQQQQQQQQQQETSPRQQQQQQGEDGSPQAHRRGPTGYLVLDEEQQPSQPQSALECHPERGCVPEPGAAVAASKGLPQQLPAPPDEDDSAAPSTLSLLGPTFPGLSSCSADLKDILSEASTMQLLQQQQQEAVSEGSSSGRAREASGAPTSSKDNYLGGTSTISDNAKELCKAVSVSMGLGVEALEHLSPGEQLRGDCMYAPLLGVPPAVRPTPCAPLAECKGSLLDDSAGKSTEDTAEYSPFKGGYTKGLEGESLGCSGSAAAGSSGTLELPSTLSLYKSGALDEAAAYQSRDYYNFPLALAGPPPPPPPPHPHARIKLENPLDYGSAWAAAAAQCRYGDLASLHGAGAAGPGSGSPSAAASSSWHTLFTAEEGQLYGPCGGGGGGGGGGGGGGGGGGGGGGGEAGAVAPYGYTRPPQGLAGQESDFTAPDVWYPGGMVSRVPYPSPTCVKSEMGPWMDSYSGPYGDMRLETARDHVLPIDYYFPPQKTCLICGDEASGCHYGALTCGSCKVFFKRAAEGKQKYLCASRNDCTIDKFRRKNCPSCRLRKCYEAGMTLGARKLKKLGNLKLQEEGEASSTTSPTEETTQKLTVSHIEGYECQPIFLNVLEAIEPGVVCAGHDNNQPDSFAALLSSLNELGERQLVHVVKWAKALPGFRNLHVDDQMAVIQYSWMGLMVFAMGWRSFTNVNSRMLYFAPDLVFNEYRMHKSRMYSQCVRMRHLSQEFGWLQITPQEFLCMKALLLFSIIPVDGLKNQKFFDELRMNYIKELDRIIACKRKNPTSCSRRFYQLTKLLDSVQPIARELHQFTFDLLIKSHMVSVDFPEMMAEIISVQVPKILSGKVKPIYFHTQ

Consider `C#C[C@]1(O)CC[C@H]2[C@@H]3CCC4=CC(=O)CC[C@@H]4[C@H]3[C@@H](Cl)C[C@@]21CC` [Verbindung B, 11ß-Chlor-17α-ethinyl-17ß-hydroxy-18-methyl-4-östren-3-on, reference compound], for which the McPhail is 1,4 in assay [1] (Dosis 0,01 mg), 2,5 in assay [1] (Dosis 0,03 mg) and 1,1 in assay [1] (Dosis 0,003 mg). Moreover, the “Schwellendosis (McPhail 1,5) für die gestagene Wirkung” value in assay [1] is listed as ~0,01 mg. Also, the “androgene Nebenwirkung” value on Androgen-Rezeptor is reported as “noch schwach androgen wirksam”.

For the compound `CC[C@]12C[C@H](Cl)[C@H]3[C@@H](CCC4=CC(=O)CC[C@@H]43)[C@@H]1CC[C@@]2(O)C#CCl` [Verbindung A, 11ß-Chlor-17α-chlorethinyl-17ß-hydroxy-18-methyl-4-östren-3-on], the McPhail in assay [1] (Dosis 0,01 mg) is reported as 1,9; in assay [1] (Dosis 0,1 mg) it was 3,3; in assay [1] (Dosis 0,03 mg), 3,0; in assay [1] (Dosis 0,003 mg), 1,2. Moreover, in assay [1], the “Schwellendosis (McPhail 1,5) für die gestagene Wirkung” value was ~0,003 mg. For the same compound, the “androgene Nebenwirkung” value at Androgen-Rezeptor is reported as “nur eine ganz geringfügige androgene Nebenwirkung”.

For the origin of these results see patent EP0092173A1, “11-Beta-chlorosteroids, process for their preparation and pharmaceutical compositions containing them” (SCHERING AKTIENGESELLSCHAFT, priority 1982, dated 1983).
